This is an account of results in PubChem BioAssay AID1508591.

The conditions of this series: rat; liver microsomes; pH 7.4; 15.0 min; 1.0 µM.
In turn, `CCOc1ccc(CCNC(=O)c2cc3sccc3n2CCN2CCOCC2)cc1OCC` displayed a half-life of 1.6 min.

`CC(=O)c1c(C)[nH]c(C(=O)Nc2ccc(OCCCN(C)C)c(S(=O)(=O)Nc3ccc(Br)cc3)c2)c1C` registered a half-life above 30 min.

Compound `Cn1c(CN2CCCC2)nc2cc(NC(=O)COc3ccc(Cl)cc3)ccc21` gave a half-life of 8.4 min.

On to `CCOc1ccc(CCNC(=O)c2cc3ccccc3o2)cc1OCC`, for which the half-life was 1.6 min.

Compound `CCCN(C(=O)c1sc2nc3n(c(=O)c2c1C)CCCC3)c1ccccc1C` registered a half-life of 1.36 min.

In the case of `COC(=O)c1sccc1NC(=O)c1sccc1C`, the half-life was found to be 1.46 min.

As to `COc1ccc(-n2nc3c(N4CCCC(C(=O)NCCc5ccc(C)cc5)C4)nnc(C)c3c2C)cc1` (stereo not given), the half-life came to 2.6 min.

In turn, `Fc1cccc(F)c1Nc1nc(-c2ccncc2)nc2ccccc12` showed a half-life of 29 min.

With `C[C@@]12O[C@@H](C[C@]1(O)CO)n1c3ccccc3c3c4c(c5c6ccccc6n2c5c31)CNC4=O`, the half-life is above 30 min.

With `O=C(Nc1ncc(Cc2ccc(C(F)(F)F)cc2)s1)c1ccc(-c2ccccc2[N+](=O)[O-])o1`, the half-life is above 30 min.

`CCOc1ccccc1C(=O)NC1CCN(c2cc(C)cc(C)c2)C1=O` (stereo not given): the half-life stood at 8.98 min.

Consider `CC1Cc2cc(S(=O)(=O)NCc3ccc(N(C)C)cc3)ccc2N1C(=O)C1CCC1` (stereo not given), for which the half-life turned out to be 1.73 min.

The compound `CCN1CCN(c2ccc(Nc3ccc(-c4ccc(C(N)=O)cc4)n4ncnc34)cc2)CC1` gave a half-life above 30 min.

`O=C(c1ccc2c(c1)OCO2)N1CCC(Cc2nc(-c3cnccn3)no2)CC1`: the half-life is above 30 min.

On to `Cc1cc(N2CCN(c3ccccc3)CC2)nc(-n2nc(C)cc2C)n1`, for which the half-life is above 30 min.

For `OC1(c2ccc(Cl)cc2)CCN(Cc2c[nH]c3ccccc23)CC1`, the half-life stood at 3.89 min.

In turn, `COc1cccc(CNC(=O)c2c(OC)cc(=O)n3c2CCN(C(=O)c2ccc(C)cc2C)CC3)c1` yielded a half-life of 5.9 min.

`Cc1cn2c(-c3cn[nH]c3)cnc2c(Nc2ccc(C(=O)N3CCNCC3)cc2F)n1` had a half-life of 7 min.

In the case of `Oc1ccc(NCc2ccccc2OCc2ccccc2Cl)cc1`, the half-life came out at 2.03 min.

Compound `COc1ccc2c(c1)/C(=C/c1cnc[nH]1)C(=O)N2` returned a half-life above 30 min.

On to `CCOc1cc(CNc2ccc(O)cc2)ccc1OCc1ccc(Cl)cc1`, for which the half-life was 3.84 min.

On to `CCc1cccc(CC)c1-n1c(C=C(C)C)c(C(=O)N2CCNCC2)cc(-c2nc(-c3ccc(C(F)(F)F)cc3)cs2)c1=O`, for which the half-life was above 30 min.

With `Fc1cc(Nc2nc(-c3ccncc3)nc3ccccc23)ccc1C(F)(F)F`, the half-life was 17 min.

Regarding `Cc1ccc(C)c(CN2CCC(CNC(=O)Nc3ccc(Br)cc3F)CC2)c1`, the half-life was found to be 3.58 min.

On to `NC(=O)N1CCN(c2nc(-c3ccc(Br)cc3)cs2)CC1`, for which the half-life was above 30 min.

Consider `CNC(=O)c1cc(Oc2ccc(NC(=O)Nc3ccc(Cl)c(C(F)(F)F)c3)c(F)c2)ccn1`, for which the half-life is above 30 min.

The compound `CCc1ccc(NC(=O)c2[nH]c(C)c(C(C)=O)c2C)cc1[S+](=O)([O-])Nc1ccccc1C#N` yielded a half-life above 30 min.

With `O=C1Nc2ccccc2C1Cc1cc(Cl)c(O)c(Cl)c1` (stereo not given), the half-life was 24 min.

In turn, `COc1ccc(-c2ccc(Nc3nc(-c4ccncc4)nc4ccccc34)cc2F)cc1F` came in with a half-life of 11 min. This half-life lies about 2.2-fold lower than the previous one.

Regarding `COc1ccc(C2=Nn3c(nnc3-c3ccncc3)SC2)cc1`, the half-life was 1.9 min. Against the preceding compound, the half-life is about 5.8-fold lower.

`COc1cccc(-c2nc(-c3cc4cc(OC)ccc4[nH]c3=O)no2)c1` yielded a half-life of 24 min.

`COc1ccc(Nc2nc(-c3ccncc3)nc3ccccc23)cc1F` yielded a half-life of 9.7 min.

With `Cc1ccc(-c2[nH]n3c(=O)c4c(nc3c2C)CCCC4)cc1`, the half-life stood at 8.72 min. The half-life values of the last two compounds are within 1.5-fold of each other.

On to `Cc1ccc(S(=O)(=O)Nc2cnccc2C(=O)Nc2nc(-c3cccnc3)cs2)cc1`, for which the half-life was 7.7 min.

Compound `COc1ccc(C)cc1NS(=O)(=O)c1ccc(-c2cnc(C3CC3)o2)cc1` had a half-life of 3.38 min.

In turn, `CCOc1ccc(CCNC(=O)c2cc3ccccc3n2Cc2ccccn2)cc1OCC` gave a half-life of 1.5 min.

`COc1cc2cc(CN3CCC(N(C)C)C3)c(-c3cccc(Cl)c3)nc2cc1OC` (stereo not given) gave a half-life of 23.1 min. Compared with the last compound, the half-life is about 15-fold higher.

`CNc1nc(C#N)c(-c2cccc3ccccc23)o1` registered a half-life of 4.8 min. Compared with the last compound, the half-life is about 4.8-fold lower.

`O=C(Nc1ccc([S+](=O)([O-])Nc2nccs2)cc1)c1ccccn1` came in with a half-life of 2.4 min. This half-life is about 2-fold lower than that of the compound before.

`Cc1ccc(S(=O)(=O)NCCC(=O)Nc2nc(-c3ccccc3)cs2)cc1` returned a half-life of 2.4 min.

Compound `COc1ccccc1NC(=O)c1oc2ccccc2c1NC(=O)Cc1cccs1` displayed a half-life of 6.77 min. This half-life is about 2.8-fold higher than that of the compound before.

`COc1cc(C2c3cc(O)c(OC)cc3CC3C(=O)OCC32)ccc1O` (stereo not given) showed a half-life of 21.1 min.

Regarding `Cc1cc(C)nc(NS(=O)(=O)c2ccc(NC(=S)NC(=O)COc3ccc(Br)cc3Cl)cc2)n1`, the half-life is above 30 min.

Take `Cc1ccc(S(=O)(=O)Nc2cc(C(=O)Nc3nc(-c4ccccc4)cs3)ccc2Cl)cc1`: the half-life is 15 min.

For `CCCCCn1c(=O)[nH]c2cc(C(=O)NCCCN3CCCCC3)ccc2c1=O`, the half-life is above 30 min.

Regarding `C[C@]1(CO)CN(c2cc(C(=O)Nc3ccc4c(c3)-c3c(c(C(N)=O)nn3-c3ccc(F)cc3)CC4)c(Cl)cn2)C[C@@]1(C)CO`, the half-life came out at 23.2 min.

For `COc1cccc(CNc2ccc(S(=O)(=O)Nc3cnc4ccccc4c3)cc2)c1O`, the half-life is 13 min.

Compound `COc1ncccc1-c1cc2[nH]ccc2c(C(=O)NCc2c(C)cc(C)[nH]c2=O)n1` came in with a half-life of 5.48 min.

Turning to `Nc1nc2c(s1)C(c1ccc(F)c(F)c1)CC(=O)N2` (stereo not given), the half-life was determined as 29.7 min. Against the preceding compound, the half-life is about 5.4-fold higher.

Compound `CC(=O)c1c(C)oc2ccc(N(C(=O)Oc3ccccc3)S(=O)(=O)c3ccccc3)cc12` had a half-life of 1.48 min.

On to `CCOc1ccc(CCNC(=O)c2cc3ccccc3n2Cc2cccc(C)c2)cc1OCC`, for which the half-life stood at 1.6 min.

Consider `COc1ccc(NC(=O)c2[nH]c(C)c(C(C)=O)c2C)cc1`, for which the half-life was above 30 min.

`COC[C@@H]1CN(C(=O)c2nn(C)c3ccccc23)C[C@H]1c1nc(C)no1` yielded a half-life of 25.7 min.

Compound `Cc1ccc2oc(NC3=NC(c4[nH]ncc4Cl)C4=C(CCCC4=O)N3)nc2c1` (stereo not given) displayed a half-life of 1.7 min. Against the preceding compound, the half-life is about 15-fold lower.

In turn, `CCc1cccc(NC(=O)c2c(C)oc3nc(C)nc(N4CCCC4)c23)c1` gave a half-life of 1.41 min.

Compound `CCCc1c(CC)c(=N)c2ccccc2n1C` had a half-life above 30 min.

In the case of `Cc1cc(Oc2ccc(N)cn2)ccc1Cl`, the half-life is 17.8 min.

Compound `Cc1cc(C)nc(NC(=S)N2CCN(c3ccc(Cl)cc3[N+](=O)[O-])CC2)c1` had a half-life of 15 min.

For the compound `COc1ccc2c(c1)CN(C(=O)CCN1CCC(Cc3ccccc3)CC1)CCS2`, the half-life stood at 2.27 min. This half-life is about 6.6-fold lower than that of the compound before.

Compound `COc1ccc(Nc2ncc(C(=O)Nc3cccc(Cl)c3)c3ccccc23)cc1` came in with a half-life of 16.5 min.

`CCCc1cc(C)[nH]c(=O)c1CNC(=O)c1cc(-c2ccnc(N3CCN(C)CC3)c2)cc2c1cnn2C(C)C` registered a half-life of 27.2 min.

On to `C=Cc1ccc(Cn2c(C(=O)O)c(CNCc3ccccc3)c3ccc(OC)cc32)cc1`, for which the half-life came to 9.8 min.

`Cc1cc(N)c2cc(NC(=O)Nc3ccc4nc(C)cc(N)c4c3)ccc2n1` had a half-life above 30 min.

Compound `CC(=O)Nc1ccc(N[S+](=O)([O-])c2cccc(NC(=O)c3[nH]c(C)c(C(C)=O)c3C)c2)cc1` displayed a half-life above 30 min.

The compound `N#C/C(=C\c1ccc(Sc2ccc(Cl)cc2)o1)c1nc2ccccc2[nH]1` gave a half-life of 7.56 min.

As for `Cc1ccnc(NC(=S)N2CCN(c3ccc(N)cc3)CC2)c1`, the half-life is above 30 min.

`CCOc1ccc(CCNC(=O)c2cc3ccccc3n2Cc2ccc(Cl)c(F)c2)cc1OCC`: the half-life is 1.7 min.

In turn, `O=C1Cc2cc(C(=O)c3ccco3)ccc2N1` returned a half-life of 20 min.

Consider `Cn1ccc2cc(-c3csc(N4CCC(C(N)=O)CC4)n3)ccc21`, for which the half-life is 2.09 min.

Take `COc1cc(Cl)c(C)cc1NC(=O)CSc1ncc(S(=O)(=O)c2ccc(C(C)(C)C)cc2)c(=O)[nH]1`: the half-life came out at 6.38 min.

`O=C(Nc1nnc(C2CCCCC2)s1)c1ccc(Br)s1` returned a half-life above 30 min.

`CN(C(=O)CNC(=O)c1cc(F)ccc1OCC(=O)Nc1ccc(I)cc1)c1ccc(F)cc1` showed a half-life of 1.74 min.

`O=[N+]([O-])c1cccc(CSc2nc3ncc(Br)cc3[nH]2)c1` showed a half-life of 6.6 min.

Regarding `Cc1ccc(-c2csc(CCn3nc(C)c4c(C(F)(F)F)cc(=O)[nH]c43)n2)cc1`, the half-life came to 4.7 min.

In turn, `COC(=O)c1ccc(NC(=O)c2nc3ccccc3n(C)c2=O)cc1` returned a half-life of 2.98 min.

`Cc1ccc(S(=O)(=O)Nc2cnccc2C(=O)Nc2nc(C3CCC3)cs2)cc1` gave a half-life of 5 min.

Consider `O=C(Nc1ccc(Cl)c(S(=O)(=O)N2CCOCC2)c1)c1ccc(S(=O)(=O)N2CCOCC2)cc1`, for which the half-life came to 6.4 min.

For the compound `Cc1ccc(S(=O)(=O)Nc2ccccc2C(=O)Nc2nccs2)cc1`, the half-life turned out to be 1.6 min. This half-life is about 4-fold lower than that of the compound before.

In turn, `CCOc1ccc(C2C(C(=O)Nc3ccccc3OC)=C(C)Nc3c(C(=O)Nc4cccc(C)c4)cnn32)cc1` (stereo not given) yielded a half-life of 4.18 min.

`Cc1ccc(-c2csc(Nc3ccc(S(=O)(=O)Nc4nccs4)cc3)n2)cc1C`: the half-life is above 30 min.

Compound `Cc1ccc(-c2cc(C(=O)O)c3ccccc3n2)cc1` displayed a half-life of 22.4 min.

With `COc1cccc(CNc2ccc(S(=O)(=O)Nc3ccc(N4CCNCC4)nc3)cc2)c1O`, the half-life is above 30 min.

Take `Cc1ccccc1CSc1nc2ncc(Br)cc2[nH]1`: the half-life is 7 min.

For `O=C(Nc1nc2cc(C(F)(F)F)cc(NC3CC3)n2n1)c1cccnc1`, the half-life was above 30 min.

Compound `CCOC(=O)C1CCN(C(=O)C(C)(C)NC(=O)Nc2ccc(-c3ccccc3)cc2)CC1` had a half-life of 1.4 min.

Turning to `COc1cccc(C(=O)Nc2ccc([S+](=O)([O-])Nc3nccs3)cc2)c1O`, the half-life was above 30 min.

Take `Cc1sc2ncnc(Sc3nnnn3-c3ccccc3)c2c1-c1ccccc1`: the half-life is 1.5 min.

With `C=CC(=O)Nc1cccc(Oc2nc(Nc3ccc(N4CCN(C)CC4)cc3)ncc2Cl)c1`, the half-life is 3.06 min.

`CC1(C)CCC(c2ccc(Cl)cc2)=C(CN2CCN(c3ccc(C(=O)NS(=O)(=O)c4ccc(N[C@H](CCN5CCOCC5)CSc5ccccc5)c(S(=O)(=O)C(F)(F)F)c4)cc3)CC2)C1`: the half-life is above 30 min.

`Cc1ccc(-c2cc(C(=O)Nc3ccc(-c4nn[nH]n4)cc3)c3ccccc3n2)cc1C` displayed a half-life above 30 min.
